Experimental data from ChEMBL document CHEMBL1909046, “DrugMatrix in vitro pharmacology data”.

Target: Beta-3 adrenergic receptor (Homo sapiens, UniProt P13945)
Sequence (P13945 whole entry): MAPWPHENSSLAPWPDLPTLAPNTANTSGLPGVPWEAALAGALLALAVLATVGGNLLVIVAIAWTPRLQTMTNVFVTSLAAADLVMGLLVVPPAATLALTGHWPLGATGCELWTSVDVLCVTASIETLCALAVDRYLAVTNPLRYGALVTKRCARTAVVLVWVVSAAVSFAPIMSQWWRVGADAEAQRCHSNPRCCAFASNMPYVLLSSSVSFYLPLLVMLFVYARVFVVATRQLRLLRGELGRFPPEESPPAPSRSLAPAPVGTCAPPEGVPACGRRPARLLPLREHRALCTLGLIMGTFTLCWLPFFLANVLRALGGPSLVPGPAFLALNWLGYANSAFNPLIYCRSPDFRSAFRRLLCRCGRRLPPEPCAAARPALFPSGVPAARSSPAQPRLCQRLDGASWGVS
Experiment: DRUGMATRIX: Adrenergic beta3 radioligand binding (ligand: [125I] Cyanopindolol)
Assay type: cell membranes, HEK293, Membrane
Conditions: Not Active = under 50% inhibition at 10 µM; read-out: IC50
`CC(C)C[C@H]1C(=O)N2CCC[C@H]2[C@]2(O)O[C@](NC(=O)[C@@H]3C=C4c5cccc6[nH]cc(c56)C[C@H]4N(C)C3)(C(C)C)C(=O)N12` [ERGOCRYPTINE] showed an IC50 of 2500 nM.

Same assay, conditions: Not Active = under 50% inhibition at 10 µM; read-out: Ki
Work on `CC(C)C[C@H]1C(=O)N2CCC[C@H]2[C@]2(O)O[C@](NC(=O)[C@@H]3C=C4c5cccc6[nH]cc(c56)C[C@H]4N(C)C3)(C(C)C)C(=O)N12` [ERGOCRYPTINE] yielded a Ki of 1870 nM.

Same assay, conditions: hek293; Not Active = under 50% inhibition at 10 µM
In the case of `CN1CCN(C(c2ccccc2)c2ccccc2)CC1` [CYCLIZINE], the IC50 is reported as “Not Active”. For `CN1C[C@@H]2C[C@H]1CN2c1cc2c(cc1F)c(=O)c(C(=O)O)cn2C1CC1` [DANOFLOXACIN], the IC50 was “Not Active”. With `COc1cccc2c1C(=O)c1c(O)c3c(c(O)c1C2=O)C[C@@](O)(C(C)=O)C[C@@H]3O[C@H]1C[C@H](N)[C@H](O)[C@H](C)O1` [DAUNORUBICIN] the IC50 was “Not Active”. For `O=C(O)c1cc(-c2ccc(F)cc2F)ccc1O` [DIFLUNISAL], the IC50 was “Not Active”. With `C[S+](C)[O-]` [DIMETHYL SULFOXIDE] the IC50 was “Not Active”. For `CC1=NN(c2ccccc2)C(=O)C1` [EDARAVONE], the IC50 was “Not Active”.

Target: 5-hydroxytryptamine receptor 6 (Homo sapiens, UniProt P50406); note: in other assays of this panel Not Active means under 50% inhibition at 10 µM
Sequence (P50406 whole entry): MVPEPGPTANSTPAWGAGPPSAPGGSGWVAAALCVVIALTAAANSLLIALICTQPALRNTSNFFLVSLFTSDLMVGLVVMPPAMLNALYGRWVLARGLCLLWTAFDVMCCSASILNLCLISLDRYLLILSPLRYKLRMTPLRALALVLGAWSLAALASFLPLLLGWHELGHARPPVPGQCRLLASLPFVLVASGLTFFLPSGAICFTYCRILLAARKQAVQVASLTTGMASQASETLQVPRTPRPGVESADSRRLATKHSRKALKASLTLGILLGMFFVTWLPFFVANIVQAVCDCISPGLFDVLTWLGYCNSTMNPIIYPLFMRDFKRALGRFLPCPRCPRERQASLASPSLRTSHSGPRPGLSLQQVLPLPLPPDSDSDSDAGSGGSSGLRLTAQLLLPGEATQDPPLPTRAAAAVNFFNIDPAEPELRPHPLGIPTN
Assay type: cell membranes, HeLa, Membrane
Conditions: hela
For `CN1CCN(C(c2ccccc2)c2ccccc2)CC1` [CYCLIZINE], the IC50 was “Not Active”. With `CN1C[C@@H]2C[C@H]1CN2c1cc2c(cc1F)c(=O)c(C(=O)O)cn2C1CC1` [DANOFLOXACIN] the IC50 was “Not Active”. In the case of `COc1cccc2c1C(=O)c1c(O)c3c(c(O)c1C2=O)C[C@@](O)(C(C)=O)C[C@@H]3O[C@H]1C[C@H](N)[C@H](O)[C@H](C)O1` [DAUNORUBICIN], the IC50 is reported as “Not Active”. In the case of `O=C(O)c1cc(-c2ccc(F)cc2F)ccc1O` [DIFLUNISAL], the IC50 is reported as “Not Active”. With `C[S+](C)[O-]` [DIMETHYL SULFOXIDE] the IC50 was “Not Active”. In the case of `CC1=NN(c2ccccc2)C(=O)C1` [EDARAVONE], the IC50 is reported as “Not Active”.

Same assay, conditions: read-out: IC50
Work on `CC(C)C[C@H]1C(=O)N2CCC[C@H]2[C@]2(O)O[C@](NC(=O)[C@@H]3C=C4c5cccc6[nH]cc(c56)C[C@H]4N(C)C3)(C(C)C)C(=O)N12` [ERGOCRYPTINE] yielded an IC50 of 16 nM.

Same assay, conditions: read-out: Ki
For `CC(C)C[C@H]1C(=O)N2CCC[C@H]2[C@]2(O)O[C@](NC(=O)[C@@H]3C=C4c5cccc6[nH]cc(c56)C[C@H]4N(C)C3)(C(C)C)C(=O)N12` [ERGOCRYPTINE], the Ki was 7.56 nM.

Target: T1, Substance-K receptor (Homo sapiens, UniProt P21452); note: in other assays of this panel Not Active means under 50% inhibition at 10 µM
T1 sequence (P21452 whole entry): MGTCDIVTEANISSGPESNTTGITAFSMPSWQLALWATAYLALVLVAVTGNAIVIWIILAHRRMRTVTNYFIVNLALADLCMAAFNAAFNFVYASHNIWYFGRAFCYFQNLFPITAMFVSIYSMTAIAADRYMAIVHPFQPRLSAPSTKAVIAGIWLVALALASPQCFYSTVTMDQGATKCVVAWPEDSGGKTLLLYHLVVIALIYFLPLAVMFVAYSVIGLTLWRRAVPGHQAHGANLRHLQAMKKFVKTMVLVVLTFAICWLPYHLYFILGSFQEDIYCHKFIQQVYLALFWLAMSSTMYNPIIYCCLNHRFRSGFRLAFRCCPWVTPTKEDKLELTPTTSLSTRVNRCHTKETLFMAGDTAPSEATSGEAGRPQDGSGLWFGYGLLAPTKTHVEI
Assay type: cell membranes, CHO, Membrane
Conditions: cho
With `CN1CCN(C(c2ccccc2)c2ccccc2)CC1` [CYCLIZINE] the IC50 was “Not Active”. In the case of `CN1C[C@@H]2C[C@H]1CN2c1cc2c(cc1F)c(=O)c(C(=O)O)cn2C1CC1` [DANOFLOXACIN], the IC50 is reported as “Not Active”. For `COc1cccc2c1C(=O)c1c(O)c3c(c(O)c1C2=O)C[C@@](O)(C(C)=O)C[C@@H]3O[C@H]1C[C@H](N)[C@H](O)[C@H](C)O1` [DAUNORUBICIN], the IC50 was “Not Active”. With `O=C(O)c1cc(-c2ccc(F)cc2F)ccc1O` [DIFLUNISAL] the IC50 was “Not Active”. With `C[S+](C)[O-]` [DIMETHYL SULFOXIDE] the IC50 was “Not Active”. In the case of `CC1=NN(c2ccccc2)C(=O)C1` [EDARAVONE], the IC50 is reported as “Not Active”. With `CC(C)C[C@H]1C(=O)N2CCC[C@H]2[C@]2(O)O[C@](NC(=O)[C@@H]3C=C4c5cccc6[nH]cc(c56)C[C@H]4N(C)C3)(C(C)C)C(=O)N12` [ERGOCRYPTINE] the IC50 was “Not Active”.

Target: T2, D(4) dopamine receptor (Homo sapiens, UniProt P21917)
T2 sequence (P21917 whole entry): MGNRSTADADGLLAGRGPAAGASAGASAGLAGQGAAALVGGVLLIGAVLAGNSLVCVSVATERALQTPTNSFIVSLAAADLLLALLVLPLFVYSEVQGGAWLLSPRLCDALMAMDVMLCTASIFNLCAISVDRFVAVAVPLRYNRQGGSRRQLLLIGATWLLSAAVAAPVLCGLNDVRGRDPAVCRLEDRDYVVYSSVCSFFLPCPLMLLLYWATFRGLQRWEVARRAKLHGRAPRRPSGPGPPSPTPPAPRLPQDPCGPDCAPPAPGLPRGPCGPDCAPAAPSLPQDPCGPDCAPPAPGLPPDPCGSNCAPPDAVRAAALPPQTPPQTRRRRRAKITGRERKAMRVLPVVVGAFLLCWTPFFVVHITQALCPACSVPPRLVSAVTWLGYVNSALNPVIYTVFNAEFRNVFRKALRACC
Experiment: DRUGMATRIX: Dopamine D4.2 radioligand binding (ligand: [3H] Spiperone)
Assay type: cell membranes, CHO-K1, Membrane
Conditions: cho-k1; Not Active = under 50% inhibition at 10 µM
For `CN1CCN(C(c2ccccc2)c2ccccc2)CC1` [CYCLIZINE], the IC50 was “Not Active”. In the case of `CN1C[C@@H]2C[C@H]1CN2c1cc2c(cc1F)c(=O)c(C(=O)O)cn2C1CC1` [DANOFLOXACIN], the IC50 is reported as “Not Active”. For `COc1cccc2c1C(=O)c1c(O)c3c(c(O)c1C2=O)C[C@@](O)(C(C)=O)C[C@@H]3O[C@H]1C[C@H](N)[C@H](O)[C@H](C)O1` [DAUNORUBICIN], the IC50 was “Not Active”. For `O=C(O)c1cc(-c2ccc(F)cc2F)ccc1O` [DIFLUNISAL], the IC50 was “Not Active”. For `C[S+](C)[O-]` [DIMETHYL SULFOXIDE], the IC50 was “Not Active”. In the case of `CC1=NN(c2ccccc2)C(=O)C1` [EDARAVONE], the IC50 is reported as “Not Active”. In the case of `CC(C)C[C@H]1C(=O)N2CCC[C@H]2[C@]2(O)O[C@](NC(=O)[C@@H]3C=C4c5cccc6[nH]cc(c56)C[C@H]4N(C)C3)(C(C)C)C(=O)N12` [ERGOCRYPTINE], the IC50 is reported as “Not Active”.

System: not listed separately
Experiment: DRUGMATRIX: Interleukin IL-1 radioligand binding (ligand: [125I] interleukin 1beta)
Assay type: cell membranes, Membrane
Conditions: nih3t3; Not Active = under 50% inhibition at 10 µM
In the case of `CN1CCN(C(c2ccccc2)c2ccccc2)CC1` [CYCLIZINE], the IC50 is reported as “Not Active” and the Ki is reported as “Not Active”. With `CN1C[C@@H]2C[C@H]1CN2c1cc2c(cc1F)c(=O)c(C(=O)O)cn2C1CC1` [DANOFLOXACIN] the IC50 was “Not Active” and the Ki was “Not Active”. For `COc1cccc2c1C(=O)c1c(O)c3c(c(O)c1C2=O)C[C@@](O)(C(C)=O)C[C@@H]3O[C@H]1C[C@H](N)[C@H](O)[C@H](C)O1` [DAUNORUBICIN], the IC50 was “Not Active” and the Ki was “Not Active”. In the case of `O=C(O)c1cc(-c2ccc(F)cc2F)ccc1O` [DIFLUNISAL], the IC50 is reported as “Not Active” and the Ki is reported as “Not Active”. With `C[S+](C)[O-]` [DIMETHYL SULFOXIDE] the IC50 was “Not Active” and the Ki was “Not Active”. For `CC1=NN(c2ccccc2)C(=O)C1` [EDARAVONE], the IC50 was “Not Active” and the Ki was “Not Active”. For `CC(C)C[C@H]1C(=O)N2CCC[C@H]2[C@]2(O)O[C@](NC(=O)[C@@H]3C=C4c5cccc6[nH]cc(c56)C[C@H]4N(C)C3)(C(C)C)C(=O)N12` [ERGOCRYPTINE], the IC50 was “Not Active” and the Ki was “Not Active”.

System: not listed separately
Experiment: DRUGMATRIX: Purinergic P2X radioligand binding (ligand: [3H] alpha, beta-Methylene-ATP)
Assay type: cell membranes, Oryctolagus cuniculus, New Zealand albino, Urinary bladder, Membrane
Conditions: Not Active = under 50% inhibition at 10 µM
In the case of `CN1CCN(C(c2ccccc2)c2ccccc2)CC1` [CYCLIZINE], the IC50 is reported as “Not Active” and the Ki is reported as “Not Active”. With `CN1C[C@@H]2C[C@H]1CN2c1cc2c(cc1F)c(=O)c(C(=O)O)cn2C1CC1` [DANOFLOXACIN] the IC50 was “Not Active” and the Ki was “Not Active”. With `COc1cccc2c1C(=O)c1c(O)c3c(c(O)c1C2=O)C[C@@](O)(C(C)=O)C[C@@H]3O[C@H]1C[C@H](N)[C@H](O)[C@H](C)O1` [DAUNORUBICIN] the IC50 was “Not Active” and the Ki was “Not Active”. In the case of `O=C(O)c1cc(-c2ccc(F)cc2F)ccc1O` [DIFLUNISAL], the IC50 is reported as “Not Active” and the Ki is reported as “Not Active”. With `C[S+](C)[O-]` [DIMETHYL SULFOXIDE] the IC50 was “Not Active” and the Ki was “Not Active”. In the case of `CC1=NN(c2ccccc2)C(=O)C1` [EDARAVONE], the IC50 is reported as “Not Active” and the Ki is reported as “Not Active”. With `CC(C)C[C@H]1C(=O)N2CCC[C@H]2[C@]2(O)O[C@](NC(=O)[C@@H]3C=C4c5cccc6[nH]cc(c56)C[C@H]4N(C)C3)(C(C)C)C(=O)N12` [ERGOCRYPTINE] the IC50 was “Not Active” and the Ki was “Not Active”.
